{"source": "patent US6884600B1", "about": "“Protein phosphatase-1 catalytic subunit interactions” (Medical Research Council London, priority 1996, dated 2005)", "key": {"PP1GL [1]": {"tested_on": "PP1GL", "test": "Phosphorylase phosphatase activity of PP1GL (hepatic glycogen particles)", "assay_type": "biochemical, rat", "procedure": "Hepatic glycogen particles were diluted in assay buffer to 0.6 phosphorylase phosphatase (PhP) mU per ml, incubated for 15 minutes at 30° C. with GM-(G63-T93) (closed circles), GM-(G63-K80) (open circles) or GM-(G63-N75) (closed triangles) and assayed as described in Example 1. The open triangles show the effect of GM-(G63-N75) which had been phosphorylated at Ser67 by PKA (pGM-(G63-N75)). Similar results were obtained in four experiments.\n(A) Hepatic glycogen protein particles containing PP1-GL were diluted and incubated for 15 min at 30° C. with the indicated concentrations of either M110[M1-F38] (open circles) or M110[M1-K35] (closed circles) and the phosphatase reactions were initiated by addition of ^32P-labelled glycogen phosphorylase. The results are expressed as a percentage of the activity determined in control incubations where the M110 peptides were omitted. Similar results were obtained in three separate experiments. (B) The experiment was carried out as in (A), except that the peptide GM[G63-N75] (“wild type”, WT) and variants in which either Val 66 (V66A) (closed triangles) or Phe 68 (F68A) (closed circles) were changed to Ala, were used instead of the M110 peptides. Similar results were obtained in three separate experiments.\n(§1) The myosin-associated form of PP1 (PP1M) was from chicken gizzard and the glycogen-associated form of PP1 (PP1G) from rabbit skeletal muscle. The β isoform of PP1c was released from PP1G by incubation for 2 hours in 2M LiBr, then purified by gel-filtration on a 30×1 cm column of Superose 12 (Pharmacia, Milton Keynes, U.K.) in the presence of 0.5M LiBr. Glycogen protein particles from rat liver were used as the source of hepatic PP1G Digoxygenin-labelled PP1c (γ1-isoform, hereafter termed PP1) was prepared as in [9]. GL was expressed in E. coli as a glutathione-S-transferase (GST) fusion protein [7], termed GST-GL. The catalytic subunit of PP2A from bovine heart (PP2AC) was provided by Dr R. MacKintosh in this Unit. The phosphorylatable myosin light chain (MLC20) and heavy meromyosin from chicken gizzard were a gift from Dr M. Ikebe (Case Western Reserve University, Cleveland, USA). Thrombin and benzamidine-Agarose were purchased from Sigma (Poole, UK).\n(§2) ^32P-labelled rabbit skeletal muscle phosphorylase a (containing 1.0 mol phosphate per mol subunit) was prepared by phosphorylation with phosphorylase kinase, ^32P-labelled rabbit skeletal muscle glycogen synthase (containing 1.5 mol/mol subunit in the sites 3 region) was prepared by phosphorylation with glycogen synthase kinase-3 [24]). ^32P-labelled chicken gizzard MLC20 and ^32P-labelled chicken gizzard heavy meromyosin (containing 1.0 mol phosphate per mol subunit) were prepared by phosphorylation with smooth muscle myosin light chain kinase. The dephosphorylation of phosphorylase a (10 μM), glycogen synthase (1 μM) and MLC20 (1 μM) and heavy meromyosin (1 μM) was carried out as in [24]. One unit of activity (U) was that amount which released […] of phosphate in one minute.\n(§3) PP1c was isolated from the rabbit skeletal muscle PP1-GM complex as described previously (Johnson et al, 1996). Glycogen particles isolated from rat liver (Schelling el al, 1988) served as the source of PP1-GL. The dephosphorylation of glycogen phosphorylase (10 μM) and the isolated MLC20 of smooth muscle myosin (1 μM) by PP1c was carried out as described previously (Cohen et al., 1988; Alessi et al., 1992)."}, "PP1M [2]": {"molecular_target": "T1, PP1M (Gallus gallus, UniProt P62207)", "T1 construct": "from tissue; host or cells: chicken gizzard smooth muscle", "T1 sequence (P62207 whole entry)": "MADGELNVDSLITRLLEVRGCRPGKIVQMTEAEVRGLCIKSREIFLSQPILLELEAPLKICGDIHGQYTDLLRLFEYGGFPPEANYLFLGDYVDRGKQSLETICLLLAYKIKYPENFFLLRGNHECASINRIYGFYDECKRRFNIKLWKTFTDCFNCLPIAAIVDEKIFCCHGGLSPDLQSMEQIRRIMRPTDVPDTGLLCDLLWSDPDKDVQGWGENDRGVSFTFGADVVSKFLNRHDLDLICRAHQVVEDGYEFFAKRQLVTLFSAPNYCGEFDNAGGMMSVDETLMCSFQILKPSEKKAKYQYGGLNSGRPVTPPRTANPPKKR", "test": "Phosphorylase phosphatase activity of PP1M", "assay_type": "biochemical, chicken", "procedure": "(§4) (A) The phosphorylase phosphatase (PhP) activity of PP1M (closed circles) and its MLC20 phosphatase (MLCP) activity (open circles) were assayed after preincubation for 15 minutes at 30° C. with the indicated concentrations of GM-(G63-T93). Activities are shown relative to control incubations in which GM-(G63-T93) was omitted. Similar results were obtained in three experiments.\n(§5) (A) PP1M from chicken gizzard smooth muscle (Alessi et al., 1992) was diluted and incubated for 15 min at 30° C. with the peptide […] (SEQ ID No 4), corresponding to the sequence in p53BP2 that contains the RVXF motif. Reactions were started with either ^32P-labelled MLC20 or glycogen phosphorylase and the MLC20 phosphatase (open circles) and phosphorylase phosphatase (PhP, closed circles) activities were determined. The results are expressed as a percentage of the activity determined in control incubations where the p53BP2 peptide was omitted (100%). Similar results were obtained in three separate experiments. (B) same as (A) except that the peptide was incubated with diluted hepatic glycogen particles containing PP1-GL before measuring the PhP activity. Similar results were obtained in three separate experiments.\n(§6) The myosin-associated form of PP1 (PP1M) was from chicken gizzard and the glycogen-associated form of PP1 (PP1G) from rabbit skeletal muscle. […]"}, "PP1M [3]": {"molecular_target": "T1, PP1M", "test": "MLC20 phosphatase activity of PP1M", "assay_type": "biochemical, chicken", "procedure": "as §4, §5, §6"}, "cultured cells": {"tested_on": "cultured cells", "test": "Effect of p53BP2 peptide introduced into cultured cells (cell cycle, apoptosis; WAF1 ELISA, Nuclear Matrix Protein ELISA)", "assay_type": "cell-based", "details": "Example 5, present tense, no data", "description": "The function of p53BP2 is ascertained by examining the in vivo effect of peptides based on the sequence of the p53BP2 binding site to PP1. This may be done by reference to the consensus peptide sequence described in the previous Examples and by reference to the crystal structure in Example 2. The peptide is introduced into cultured cells using penetratin available from Appligene. Other importins may also be used. Alternatively cDNA specifying p53BP2 proteins mutant in the p53BP2 binding site to PP1 are transfected in cultured cells. The effect of these agents on the cell cycle and apoptosis are assessed by a number of methods, for example WAF1 ELISA and Nuclear Matrix Protein ELISA assays (Amersham)."}, "PP1c [4]": {"molecular_target": "T2, PP1c (Oryctolagus cuniculus, UniProt P62143)", "T2 construct": "from tissue; host or cells: rabbit skeletal muscle (PP1G dissociated with LiBr)", "T2 sequence (P62143 whole entry)": "as the sequence (P62207 whole entry) above", "test": "Phosphorylase phosphatase activity of PP1c", "assay_type": "biochemical, rabbit", "procedure": "(§7) A,B; Effects of M110-(M1-E309) (closed circles), M110-(M1-F38) (open circles) and M110-(D39-E309) (open triangles) on the MLC20 phosphatase […] and phosphorylase phosphatase (B) activities of PP1c were measured after incubating PP1c for 15 minutes at 30° C. with each fragment. The results are presented as a percentage of those obtained in experiments where the M110 fragments were omitted.\n(§8) C,D; The effect of M110-(M1-A150) (open circles) and M110-(L24-Y496) (closed circles) on the MLC20 phosphatase (C) and phosphorylase phosphatase (D) activities of PP1c were measured as in A,B.\n(B) The phosphorylase phosphatase activity of PP1c was assayed as in A in the presence or absence of 1 μM GM-(G63-T93) and 1.0 nM M110-(M1-E309). The results are presented (SEM for three experiments) as a percentage of the PP1c activity measured in the absence of GM-(63-T93), M110-(M1-F38) or M110-(M1-E309).\nas §1, §2, §3"}, "PP1c [5]": {"molecular_target": "T2, PP1c", "test": "MLC20 (myosin P-light chain) phosphatase activity of PP1c", "assay_type": "biochemical", "procedure": "as §7, §8\n(A) The MLC20 phosphatase activity of PP1c was assayed after incubation for 15 minutes at 30° C. in the presence or absence of 1 μM GM-(G63-T93) and either 0.1 μM M110-(M1-F38) or 0.1 nM M110-(M1-E309).\n(1-38, open circles) or M110[M1-K35] (1-35, closed circles) were incubated with PP1c for 15 min at 30° C. and reactions started with the ^32P-labelled MLC20 substrate. The results are expressed as a % of the activity determined in control incubations where the M110 peptides were omitted (100%). Similar results were obtained in three separate experiments.\nas §1, §2, §3\n^32P-labelled myosin P-light chains containing 1.0 mol phosphate per mol subunit was prepared by phosphorylation with smooth muscle myosin light chain kinase. The dephosphorylation of myosin P-light chain (1 μM) was carried out as in [4] and one unit of activity (U) was that amount which catalysed the release of 1 μmole of phosphate in one min. When assaying PP1M in immunoprecipitates from the myofibrillar extracts, the tubes were shaken continuously and 3 nM okadaic acid was included to inhibit any PP2A present."}, "PP1GL [6]": {"tested_on": "PP1GL", "test": "Glycogen synthase phosphatase activity of PP1GL", "assay_type": "biochemical, rat", "procedure": "as §1, with “UK). […]” for “UK).”"}, "PP1M [7]": {"molecular_target": "T1, PP1M", "test": "Gel filtration of PP1M on Superose 12 with or without GM-(G63-T93)", "assay_type": "binding, chicken", "procedure": "(B,C) PPIM was incubated for 15 minutes at 30° C. in the absence (B) and presence (C) of […] GM-(G63-T93), then passed through a 30×1 cm column of Superose 12 equilibrated at ambient temperature in 50 mM Tris/HCl pH 7.5, 0.2M NaCl, 0.1 mM EGTA, 0.1% (by vol) 2-mercaptoethanol, 0.03% (by mass) Brij 35 in the absence (B) or presence (C) of 1 μM GM-(G63-T93). Fractions (0.25 ml) were assayed for MLC20 phosphatase (MLCP) in B and for phosphorylase phosphatase (PhP) activity in C. The arrows denote the position of ferritin (450 kDa) and ovalbumin (43 kDa)."}}, "note": "Entries after “also recorded” stand apart in the source; their conditions may differ."}
{"sequence": "GKRTNLRKTGSERIAHGMRVKFNPLALLLDSC [32 residue peptide from p53BP2]", "values": [{"measurement": "effect on the phosphorylase phosphatase activity of PP1GL", "setting": "PP1GL [1]; hepatic glycogen particles containing PP1-GL", "result": "increase in the rate of dephosphorylation of glycogen phosphorylase"}, {"measurement": "effect on the phosphorylase phosphatase activity of PP1M", "setting": "PP1M [2]", "result": "increase in the rate of dephosphorylation of glycogen phosphorylase"}, {"measurement": "effect on the MLC20 phosphatase activity of PP1M", "setting": "PP1M [3]", "result": "decrease in the rate of dephosphorylation of the MLC20 subunit of smooth muscle myosin"}, {"measurement": "effect of the peptide in cultured cells", "setting": "cultured cells", "result": "modulate the interaction between PP1 and p53BP2 in vivo and affect cell regulation and apoptosis"}]}
{"sequence": "GRRVSFADNFGFNLVSVKEFDTWELPSVSTT [GM-(G63-T93), synthetic peptide, residues 63-93 of rabbit GM]", "values": [{"measurement": "displacement of GL from PP1c", "setting": "PP1GL [1]", "result": "does not displace GL from PP1c"}, {"measurement": "increase in the phosphorylase phosphatase activity of PP1GL", "setting": "PP1GL [1]; hepatic glycogen particles, 15 min 30° C.", "result": "sixfold"}, {"measurement": "EC50", "setting": "PP1GL [1]; hepatic glycogen particles, 15 min 30° C., read-out: concentration required for 50% activation of the phosphorylase phosphatase activity of PP1GL", "result": 30, "unit": "nM"}, {"measurement": "prevention of suppression of the phosphorylase phosphatase activity of PP1c by a regulatory subunit or fragment", "setting": "PP1c [4]", "result": "prevented bacterially expressed GST-GL from suppressing the phosphorylase phosphatase activity of PP1c; also recorded: prevented M110-(M1-E309) from suppressing the phosphorylase phosphatase activity of PP1c"}, {"measurement": "maximal stimulation of the phosphorylase phosphatase activity of PP1c", "setting": "PP1c [4]; SEM for three experiments", "result": "37+1.4%"}, {"measurement": "prevention of stimulation of the MLC20 phosphatase activity of PP1c by M110 fragments", "setting": "PP1c [5]", "result": "prevented M110-(M1-F38) or M110-(M1-E309) from stimulating the MLC20 phosphatase activity of PP1c"}, {"measurement": "effect on the glycogen synthase phosphatase activity of PP1GL", "setting": "PP1GL [6]", "result": "no effect"}, {"measurement": "increase in the phosphorylase phosphatase activity of PP1M", "setting": "PP1M [2]; 10 μM peptide", "result": "about 7 fold"}, {"measurement": "suppression of the MLC20 phosphatase activity of PP1M", "setting": "PP1M [3]; 10 μM peptide", "result": "60-65%"}, {"measurement": "dissociation of PP1M in gel-filtration experiments", "setting": "PP1M [7]", "result": "displaced the M110 subunit from PP1M"}]}
